{"source": "ChEMBL document CHEMBL1141489", "about": "“A highly efficient route to enantiomerically pure l-N-Bz-Pmp(t-Bu)2-OH and incorporation into a peptide-based protein tyrosine phosphatase inhibitor” (Bioorg Med Chem Lett, 2008)", "key": {"[1]": {"molecular_target": "T1, Receptor-type tyrosine-protein phosphatase C (Homo sapiens, UniProt P08575)", "T1 sequence (P08575 whole entry)": "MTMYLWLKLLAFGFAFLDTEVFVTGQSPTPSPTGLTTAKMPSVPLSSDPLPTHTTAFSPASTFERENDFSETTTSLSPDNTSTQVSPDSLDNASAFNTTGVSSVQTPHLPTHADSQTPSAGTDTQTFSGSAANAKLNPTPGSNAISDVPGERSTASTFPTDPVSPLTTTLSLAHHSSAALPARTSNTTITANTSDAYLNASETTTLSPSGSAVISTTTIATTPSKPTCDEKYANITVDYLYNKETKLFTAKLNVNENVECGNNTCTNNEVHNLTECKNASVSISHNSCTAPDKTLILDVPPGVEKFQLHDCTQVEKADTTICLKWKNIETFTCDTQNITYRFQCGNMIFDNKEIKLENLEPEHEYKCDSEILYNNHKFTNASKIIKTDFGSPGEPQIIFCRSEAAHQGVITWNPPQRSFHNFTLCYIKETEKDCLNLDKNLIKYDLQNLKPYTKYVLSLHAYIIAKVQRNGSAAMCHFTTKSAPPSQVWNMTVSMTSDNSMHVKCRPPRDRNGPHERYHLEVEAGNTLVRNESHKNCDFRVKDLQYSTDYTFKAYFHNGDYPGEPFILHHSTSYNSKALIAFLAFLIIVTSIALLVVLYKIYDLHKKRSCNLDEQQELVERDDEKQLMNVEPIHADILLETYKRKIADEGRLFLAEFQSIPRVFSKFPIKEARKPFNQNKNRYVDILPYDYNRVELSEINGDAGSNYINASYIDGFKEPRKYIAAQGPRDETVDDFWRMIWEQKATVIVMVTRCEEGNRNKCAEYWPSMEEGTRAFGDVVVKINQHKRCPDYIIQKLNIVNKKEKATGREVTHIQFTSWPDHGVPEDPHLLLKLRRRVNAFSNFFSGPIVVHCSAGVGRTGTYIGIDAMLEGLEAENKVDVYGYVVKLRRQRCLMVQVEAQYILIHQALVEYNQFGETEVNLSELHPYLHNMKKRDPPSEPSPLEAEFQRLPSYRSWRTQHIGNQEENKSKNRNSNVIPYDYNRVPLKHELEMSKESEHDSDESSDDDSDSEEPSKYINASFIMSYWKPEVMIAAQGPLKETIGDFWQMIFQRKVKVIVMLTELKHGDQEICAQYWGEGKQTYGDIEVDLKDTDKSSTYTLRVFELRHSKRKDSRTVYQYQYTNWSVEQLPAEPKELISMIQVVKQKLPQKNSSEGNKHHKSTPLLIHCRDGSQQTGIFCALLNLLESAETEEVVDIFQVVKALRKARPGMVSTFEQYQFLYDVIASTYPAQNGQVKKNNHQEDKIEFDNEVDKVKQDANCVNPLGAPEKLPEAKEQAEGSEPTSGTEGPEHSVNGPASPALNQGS", "assay": "Inhibition of CD45"}, "[2]": {"molecular_target": "T2, Tyrosine-protein phosphatase non-receptor type 2 (Homo sapiens) (UniProt P17706)", "T2 sequence (whole entry)": "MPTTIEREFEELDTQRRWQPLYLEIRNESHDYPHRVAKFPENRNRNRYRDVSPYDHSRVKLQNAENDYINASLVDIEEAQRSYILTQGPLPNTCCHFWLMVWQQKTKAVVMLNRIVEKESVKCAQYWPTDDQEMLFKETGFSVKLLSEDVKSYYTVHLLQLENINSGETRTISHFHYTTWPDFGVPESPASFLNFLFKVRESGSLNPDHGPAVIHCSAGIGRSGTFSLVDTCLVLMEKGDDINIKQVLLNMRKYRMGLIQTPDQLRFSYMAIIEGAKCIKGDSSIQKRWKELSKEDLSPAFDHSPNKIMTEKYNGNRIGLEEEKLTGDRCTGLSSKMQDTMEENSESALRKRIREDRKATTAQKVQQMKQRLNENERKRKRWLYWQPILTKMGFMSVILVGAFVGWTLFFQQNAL", "assay": "Inhibition of TCPTP upto 120 uM"}}, "note": "Activity calls are given as the source filed them. The rule behind the calls is not given here. Square brackets hold non-standard residues; d marks the D form. Peptide text beside a SMILES is read from it. Pmp = N[C@@H](Cc1ccc(CP(=O)(O)O)cc1)C(=O)O"}
{"smiles": "CC(=O)N[C@H](C(=O)N[C@@H](CCC(=O)O)C(=O)NCC(=O)N[C@@H](CCC(N)=O)C(=O)N[C@@H](Cc1ccc(CP(=O)(O)O)cc1)C(=O)N[C@@H](CCC(N)=O)C(=O)N1CCC[C@H]1C(=O)N[C@@H](CCC(N)=O)C(=O)N1CCC[C@H]1C(N)=O)[C@@H](C)O", "note": "(Ac-TEGQ[Pmp]QPQP-NH2)", "values": [{"measurement": "IC50", "setting": "[1]", "value": 100, "unit": "µM"}, {"measurement": "Activity", "setting": "[2]", "value": "inactive"}]}
